Structures can show the parent of a compound that is named as a salt.

T1 sequence (Q00975 whole entry): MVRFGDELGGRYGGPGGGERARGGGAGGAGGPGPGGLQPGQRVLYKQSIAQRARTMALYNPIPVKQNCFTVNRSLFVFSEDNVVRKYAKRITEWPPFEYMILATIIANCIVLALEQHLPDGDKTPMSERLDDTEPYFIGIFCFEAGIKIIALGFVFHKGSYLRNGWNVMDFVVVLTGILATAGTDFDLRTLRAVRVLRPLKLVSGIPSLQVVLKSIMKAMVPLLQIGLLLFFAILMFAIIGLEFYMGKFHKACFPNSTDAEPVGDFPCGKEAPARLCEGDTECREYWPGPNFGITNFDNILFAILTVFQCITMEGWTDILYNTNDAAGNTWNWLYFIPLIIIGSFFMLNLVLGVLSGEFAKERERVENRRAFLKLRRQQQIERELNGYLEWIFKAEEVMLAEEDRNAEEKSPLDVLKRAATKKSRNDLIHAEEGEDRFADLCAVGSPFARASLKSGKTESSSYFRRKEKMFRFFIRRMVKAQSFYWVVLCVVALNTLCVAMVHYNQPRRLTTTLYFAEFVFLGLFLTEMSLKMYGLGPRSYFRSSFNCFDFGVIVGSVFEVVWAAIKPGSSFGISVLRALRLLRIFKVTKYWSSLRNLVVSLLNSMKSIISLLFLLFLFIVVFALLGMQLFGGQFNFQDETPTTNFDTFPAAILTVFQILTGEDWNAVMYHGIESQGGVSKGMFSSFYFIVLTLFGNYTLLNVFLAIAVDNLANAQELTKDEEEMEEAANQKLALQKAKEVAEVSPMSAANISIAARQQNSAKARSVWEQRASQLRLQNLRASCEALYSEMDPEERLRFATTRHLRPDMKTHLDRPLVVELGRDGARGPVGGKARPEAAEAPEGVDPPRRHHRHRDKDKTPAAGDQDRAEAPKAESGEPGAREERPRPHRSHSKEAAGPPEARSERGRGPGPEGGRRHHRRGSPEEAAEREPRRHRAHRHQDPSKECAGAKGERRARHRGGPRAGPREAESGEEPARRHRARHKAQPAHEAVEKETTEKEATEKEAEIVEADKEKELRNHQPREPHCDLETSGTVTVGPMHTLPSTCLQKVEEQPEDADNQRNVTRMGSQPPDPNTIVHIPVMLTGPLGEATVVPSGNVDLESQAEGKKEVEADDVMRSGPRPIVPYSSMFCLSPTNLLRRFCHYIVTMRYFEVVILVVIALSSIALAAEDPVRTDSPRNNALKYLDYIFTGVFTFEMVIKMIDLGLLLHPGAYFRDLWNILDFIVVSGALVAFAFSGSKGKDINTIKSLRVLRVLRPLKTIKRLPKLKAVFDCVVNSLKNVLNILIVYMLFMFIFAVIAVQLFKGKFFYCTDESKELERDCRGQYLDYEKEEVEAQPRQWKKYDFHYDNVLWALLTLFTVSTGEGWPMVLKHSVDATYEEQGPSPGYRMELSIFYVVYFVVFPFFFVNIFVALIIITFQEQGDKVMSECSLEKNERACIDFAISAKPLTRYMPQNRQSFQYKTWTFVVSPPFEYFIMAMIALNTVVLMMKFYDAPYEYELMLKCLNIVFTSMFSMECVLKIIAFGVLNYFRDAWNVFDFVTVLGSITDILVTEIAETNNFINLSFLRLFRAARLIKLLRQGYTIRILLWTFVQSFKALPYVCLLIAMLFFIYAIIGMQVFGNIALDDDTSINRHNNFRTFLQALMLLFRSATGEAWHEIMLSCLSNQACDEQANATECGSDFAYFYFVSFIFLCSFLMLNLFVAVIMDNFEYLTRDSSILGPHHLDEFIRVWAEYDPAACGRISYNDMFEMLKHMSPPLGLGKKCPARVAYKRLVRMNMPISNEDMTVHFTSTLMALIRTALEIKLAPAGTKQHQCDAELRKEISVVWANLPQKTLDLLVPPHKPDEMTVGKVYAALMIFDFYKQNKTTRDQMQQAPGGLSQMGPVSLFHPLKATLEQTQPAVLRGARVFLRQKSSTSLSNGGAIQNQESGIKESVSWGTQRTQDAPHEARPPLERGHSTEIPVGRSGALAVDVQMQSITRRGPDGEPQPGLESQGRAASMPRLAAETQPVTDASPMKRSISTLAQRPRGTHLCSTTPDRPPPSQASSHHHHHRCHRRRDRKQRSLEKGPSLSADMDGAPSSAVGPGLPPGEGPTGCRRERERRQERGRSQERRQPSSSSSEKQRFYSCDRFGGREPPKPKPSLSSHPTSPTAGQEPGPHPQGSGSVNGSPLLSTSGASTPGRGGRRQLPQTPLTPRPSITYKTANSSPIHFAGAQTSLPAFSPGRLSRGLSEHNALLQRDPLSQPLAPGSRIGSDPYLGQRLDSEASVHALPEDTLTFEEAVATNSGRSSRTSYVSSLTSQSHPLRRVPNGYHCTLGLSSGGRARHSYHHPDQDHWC

This test addresses T1, hCaV2.2 (Homo sapiens, UniProt Q00975).
T1 construct: expressed in transfected cells; plasmids pCIN5-hCaV2.2, pCIH-hCaV β3, pCIP-α2δ1
Description: hCaV2.2 assay, IonWorks planar array electrophysiology in stably transfected HEK293 cells. The class given is cell-based. To be noted: current elicited by the 1st depolarising pulse inhibited by 50%; HEK293 cells expressing human CaV2.2 alpha/beta3/alpha2delta1; read-out: mean pIC50 (tonic pIC50) (converted). On the procedure:
Compounds of the invention may be tested for in vitro biological activity in the hCaV2.2 assay in accordance with the following studies:
Stable cell lines expressing the human CaV2.2 α (als) subunit, along with the human […] and α2δ1 auxiliary subunits were created following sequential transfection and selection of human embryonic kidney (HEK293) cells. HEK293 cells were cultured in Dulbecco's modified Eagles media/F12 media (Invitrogen, Cat #041-95750V) containing 10% foetal bovine serum, with added L-glutamine (2 mM; Invitrogen, Cat #25030-024) and non-essential amino acids (5%; Invitrogen, Cat #11140-035). Initially HEK293 cells were transfected with two plasmid vectors for expression of the hCaV2.2 α subunit (pCIN5-hCaV2.2 which carries a neomycin resistance marker) and the hCaV β3 subunit (pCIH-hCaV β3 which carries a hygromycin resistance marker). Clonal cell lines were isolated following selection in media supplemented with 0.4 mg ml^−1 Geneticin G418 (Invitrogen, Cat #10131-027) and 0.1 mg ml^1 hygromycin (Invitrogen, Cat #10687-010). These clonal cell lines were assessed for Cav2.2α/β3-mediated current expression using the IonWorks planar array electrophysiology technology (described below). A clonal line was identified that gave a reasonable level of functional Cav2.2α/β3 current expression. This cell line was transfected with a plasmid vector for expression of the human […] subunit (pCIP-α2δ1 which carries a puromycin resistance marker) and clonal cell lines isolated following selection in media containing 0.62 μg ml^−1 puromycin (Sigma, Cat #P-7255), in addition to 0.4 mg ml^−1 Geneticin G418 and 0.1 mg ml^−1 hygromycin. Several cell lines were identified that gave robust levels of Cav2.2α/β3/α2δ1-mediated current expression and one of these was selected for compound profiling. Expression of all three subunits within this cell line was continuously maintained by the inclusion of G418 (0.4 mg ml^−1), hygromycin (0.1 mg ml^−1) and puromycin (0.62 μg ml^−1). Cells were maintained at 37° C. in a humidified environment containing 5% CO2 in air. Cells were liberated from the T175 culture flasks for passage and harvesting using TrpLE (Invitrogen, Cat #12604-013).
Cells were grown to 30-60% confluence in T175 flasks and maintained at 30° C. for 24 hrs prior to recording. Cells were lifted by removing the growth media, washing with Ca^2+ free PBS (Invitrogen, Cat #14190-094) and incubating with 3 ml of warmed (37° C.) TrpLE (Invitrogen, Cat #12604-013) for 6 minutes. Lifted cells were suspended in 10 ml of extracellular buffer. Cell suspension was then placed into a 15 ml tube and centrifuged for 2 minutes at 700 rpm. After centrifugation, the supernatant was removed and the cell pellet was resuspended in 4.5 ml of extracellular solution.
Currents were recorded at room temperature (21-23° C.) using the IonWorks planar array electrophysiology technology (Molecular Devices Corp.). Stimulation protocols and data acquisition were carried out using a microcomputer (Dell Pentium 4). In order to determine planar electrode hole resistances (Rp), a 10 mV, 160 ms potential difference was applied across each hole. These measurements were performed before cell addition. After cell addition a seal test was performed prior to antibiotic (amphotericin) circulation to achieve intracellular access. Leak subtraction was conducted in all experiments by applying a 160 ms hyperpolarizing (10 mV) prepulse 200 ms before the test pulses to measure leak conductance. Test pulses stepping from the holding potential (VH) of −90 mV to +10 mV were applied for 20 ms and repeated 10 times at a frequency of 10 Hz. In all experiments, the test pulse protocol was performed in the absence (pre-read) and presence (post-read) of a compound. Pre- and post-reads were separated by a compound addition followed by a 3-3.5 min incubation.
The intracellular solution contained the following (in mM): K-gluconate 120, KCl 20 mM, MgCl2 5, EGTA 5, HEPES 10, adjusted to pH 7.3. […]
As for `Cc1ccc(C(=O)N2CCN(S(=O)(=O)c3ccc(C(F)(F)F)cc3)C[C@H]2C)cn1` [Example 19, (2R)-2-methyl-1-[(6-methyl-3-pyridinyl)carbonyl]-4-{[4-(trifluoromethyl)phenyl]sulfonyl}piperazine formic acid salt (1:1)], the IC50 was no less than 31.6 µM.
Take `Cc1ccc(C(=O)N2CCN(S(=O)(=O)c3cc(C(F)(F)F)ccc3C)CC2)cn1` [Example 61, 1-[(6-methyl-3-pyridinyl)carbonyl]-4-{[2-methyl-5-(trifluoromethyl)phenyl]sulfon-yl}piperazine]: the IC50 is no less than 31.6 µM.
As for `Cc1ccc(C(=O)N2CCN(S(=O)(=O)c3ccc(C(F)(F)F)cc3)[C@@H](C)C2)cn1` [Example 11, (2S)-2-Methyl-4-[(6-methyl-3-pyridinyl)carbonyl]-1-{[4-(trifluoromethyl)phenyl]sulfonyl}piperazine formic acid salt], the figure is no less than 31.6 µM; as for `Cc1ncccc1C(=O)N1CCN(S(=O)(=O)c2ccc(OC(F)(F)F)cc2)C[C@H]1C` [Example 65, (2R)-2-methyl-1-[(2-methyl-3-pyridinyl)carbonyl]-4-({4-[(trifluoromethyl)oxy]phenyl}sulfonyl)piperazine], no less than 31.6 µM; as for `CNc1ccc(C(=O)N2CCN(S(=O)(=O)c3ccc(C#N)cc3C)C[C@@H]2C)c(C)n1` [Example 38, 3-Methyl-4-[((3S)-3-methyl-4-{[2-methyl-6-(methylamino)-3-pyridinyl]carbonyl}-1-piperazinyl)sulfonyl]benzonitrile], no less than 31.6 µM.
The result for `Cc1nc(N2CCOCC2)ccc1C(=O)N1CCN(S(=O)(=O)c2ccc(C(F)(F)F)cc2)C[C@@H]1C` [Example 34, 4-{6-Methyl-5-[((2S)-2-methyl-4-{[4-(trifluoromethyl)phenyl]sulfonyl}-1-piperazinyl)carbonyl]-2-pyridinyl}morpholine hydrochloride] reads no less than 10 µM; that for `Cc1ccc(C(=O)N2CCN(S(=O)(=O)c3ccc(OC(F)(F)F)cc3)C[C@@H]2C)cn1` [Example 21, (2S)-2-Methyl-1-[(6-methyl-3-pyridinyl)carbonyl]-4-({4-[(trifluoromethyl)oxy]phenyl}sulfonyl)piperazine], no less than 31.6 µM.
In the case of `Cc1ccc(C(=O)N2CCN(S(=O)(=O)c3ccc(C(F)(F)F)cc3)C[C@@H]2C)c(C)n1` [Example 29, (2S)-1-[(2,6-Dimethyl-3-pyridinyl)carbonyl]-2-methyl-4-{[4-(trifluoromethyl)phenyl]sulfonyl}piperazine], the IC50 is no less than 10 µM.
The result for `Cc1nc(Cl)ccc1C(=O)N1CCN(S(=O)(=O)c2ccc(C(F)(F)F)cc2)C[C@@H]1C` [Example 24, (2S)-1-[(6-Chloro-2-methyl-3-pyridinyl)carbonyl]-2-methyl-4-{[4-(trifluoromethyl)phenyl]sulfonyl}piperazine] reads no less than 10 µM.
As for `Cc1ccc(C(=O)N2CCN(S(=O)(=O)c3ccc(OC(F)(F)F)cc3)CC2)cn1` [Example 23, 1-[(6-Methyl-3-pyridinyl)carbonyl]-4-({4-[(trifluoromethyl)oxy]phenyl}sulfonyl)piperazine], the figure is no less than 31.6 µM; as for `Cc1ccc(C(F)(F)F)cc1S(=O)(=O)N1CCN(C(=O)c2cccnc2C)[C@@H](C)C1` [Example 60, (2S)-2-methyl-1-[(2-methyl-3-pyridinyl)carbonyl]-4-{[2-methyl-5-(trifluoromethyl)phenyl]sulfon-yl}piperazine], no less than 10 µM; as for `Cc1ncccc1C(=O)N1CCN(S(=O)(=O)c2ccc(C(F)(F)F)cc2)[C@H](C)C1` [Example 10, (2R)-2-Methyl-4-[(2-methyl-3-pyridinyl)carbonyl]-1-{[4-(trifluoromethyl)phenyl]sulfonyl}piperazine formic acid salt], no less than 31.6 µM.
On to `Cc1cc(C#N)ccc1S(=O)(=O)N1CCN(C(=O)c2ccc(N3CCOCC3)nc2C)[C@@H](C)C1` [Example 35, 3-Methyl-4-[((3S)-3-methyl-4-{[2-methyl-6-(4-morpholinyl)-3-pyridinyl]carbonyl}-1-piperazinyl)sulfonyl]benzonitrile hydrochloride], for which the IC50 is no less than 10 µM.
The result for `CN(C)c1ccc(C(=O)N2CCN(S(=O)(=O)c3ccc(C(F)(F)F)cc3)CC2)cn1` [Example 57, N,N-dimethyl-5-[(4-{[4-(trifluoromethyl)phenyl]sulfonyl}-1-piperazinyl)carbonyl]-2-pyridinamine] reads no less than 31.6 µM; that for `Cc1ncccc1C(=O)N1CCN(S(=O)(=O)c2ccc(C(F)(F)F)cc2)C[C@@H]1C` [Example 2, (2S)-2-Methyl-1-[(2-methyl-3-pyridinyl)carbonyl]-4-{[4-(trifluoromethyl)phenyl]sulfonyl}piperazine hydrochloride], no less than 31.6 µM.
As for `Nc1ccc(C(=O)N2CCN(S(=O)(=O)c3ccc(C(F)(F)F)cc3)CC2)cn1` [Example 66, 5-[(4-{[4-(trifluoromethyl)phenyl]sulfon-yl}-1-piperazinyl)carbonyl]-2-pyridinamine], the figure is no less than 31.6 µM; as for `CCc1ccc(C(=O)N2CCN(S(=O)(=O)c3ccc(C#N)cc3C)C[C@@H]2C)cn1` [Example 53, 4-({(3S)-4-[(6-ethyl-3-pyridinyl)carbonyl]-3-methyl-1-piperazinyl}sulfonyl)-3-methylbenzonitrile hydrochloride], no less than 31.6 µM; as for `Cc1ccc(C(=O)N2CCN(S(=O)(=O)c3ccc(C#N)cc3C)C[C@@H]2C)c(C)n1` [Example 67, 4-({(3S)-4-[(2,6-dimethyl-3-pyridinyl)carbonyl]-3-methyl-1-piperazinyl}sulfonyl)-3-methylbenzonitrile], no less than 31.6 µM.
The result for `C[C@H]1CN(S(=O)(=O)c2ccc(C(F)(F)F)cc2)CCN1C(=O)c1ccc(N2CCOCC2)nc1` [Example 42, 4-{5-[((2S)-2-Methyl-4-{[4-(trifluoromethyl)phenyl]sulfonyl}-1-piperazinyl)carbonyl]-2-pyridinyl}morpholine hydrochloride] reads no less than 10 µM; that for `Cc1cncc(C(=O)N2CCN(S(=O)(=O)c3ccc(C(F)(F)F)cc3)C[C@@H]2C)c1` [Example 16, (2S)-2-Methyl-1-[(5-methyl-3-pyridinyl)carbonyl]-4-{[4-(trifluoromethyl)phenyl]sulfonyl}piperazine], no less than 31.6 µM.
For `Cc1ccc(C(=O)N2CCN(S(=O)(=O)c3ccc(C#N)cc3C)C[C@@H]2C)cn1` [Example 17, 3-Methyl-4-({(3S)-3-methyl-4-[(6-methyl-3-pyridinyl)carbonyl]-1-piperazinyl}sulfonyl)benzonitrile], the IC50 is no less than 31.6 µM.
For the molecule `COc1ncccc1C(=O)N1CCN(S(=O)(=O)c2ccc(C(F)(F)F)cc2)C[C@@H]1C` [Example 15, (2S)-2-Methyl-1-{[2-(methyloxy)-3-pyridinyl]carbonyl}-4-{[4-(trifluoromethyl)phenyl]sulfonyl}piperazine], the IC50 is no less than 31.6 µM.
Take `Cc1ncccc1C(=O)N1CCN(S(=O)(=O)c2ccc(C(F)(F)F)cc2)CC1` [Example 5, 1-[(2-Methyl-3-pyridinyl)carbonyl]-4-{[4-(trifluoromethyl)phenyl]sulfonyl}piperazine]: the IC50 is no less than 31.6 µM.
The result for `Cc1ccc(C(=O)N2CCN(S(=O)(=O)c3ccc(C(F)(F)F)cc3)[C@H](C)C2)cn1` [Example 9, (2R)-2-Methyl-4-[(6-methyl-3-pyridinyl)carbonyl]-1-{[4-(trifluoromethyl)phenyl]sulfonyl}piperazine formic acid salt] reads no less than 31.6 µM.
